Experimental data: ChEMBL document CHEMBL3046664, “Synthesis in vitro/in vivo evaluation and in silico physicochemical study of prodrug approach for brain targeting of alkylating agent” (Med Chem Res, 2013)

Tests used:
[1] = system: Blood; assay: Half life in 100% Homo sapiens (human) whole blood assessed as conversion to 1-Benzyl-3-{(bis(2-chloroethyl)amino)carbamoyl}pyridinium bromide at 10 x 10^-4 M by UV-spectrophotometric analysis; type: ADME, tissue-based; conditions: 1000 µM
[2] = system: Brain; assay: Half life in Rattus norvegicus (rat) brain homogenate assessed as conversion to 1-Benzyl-3-{(bis(2-chloroethyl)amino)carbamoyl}pyridinium bromide at 6.25 x 10^-4 M by UV-spectrophotometric analysis; type: ADME, tissue-based; conditions: 625 µM
[3] = Half life in silver nitrate solution assessed as conversion to 1-Benzyl-3-{(bis(2-chloroethyl)amino)carbamoyl}pyridinium bromide at 5% after 2 min by UV-Visible spectrophotometric analysis; type: physicochemical
[4] = Stability of the compound assessed as decomposition at 25 degC after 60 days by UV spectrophotometric analysis; type: physicochemical; conditions: read-out: Drug degradation
[5] = system: Blood; assay: Half life in 100% Rattus norvegicus (rat) whole blood assessed as conversion to 1-Benzyl-3-{(bis(2-chloroethyl)amino)carbamoyl}pyridinium bromide at 10 x 10^-4 M by UV-spectrophotometric analysis; type: ADME, tissue-based; conditions: 1000 µM
[6] = Stability of the compound assessed as decomposition at 4 degC after 60 days by UV spectrophotometric analysis; type: physicochemical; conditions: read-out: Drug degradation
[7] = Half life of the compound after 30 min by UV-spectrophotometric analysis in presence of 4-(4-nitrobenzyl)pyridine; type: physicochemical
[8] = system: Brain; assay: Prodrug conversion in Sprague-Dawley Rattus norvegicus (rat) brain homogenate assessed as 1-(4-Nitrobenzyl-3-{(bis(2-chloroethyl)amino)carbamoyl}pyridinium bromide level at 40 mg/kg, iv measured at 30 min by UV-spectrophotometric analysis; type: ADME, organism-based; set-up: dose 40 mg/kg, route intravenous; conditions: in vivo, 0.5 h
[9] = system: Brain; assay: Prodrug conversion in Sprague-Dawley Rattus norvegicus (rat) brain homogenate assessed as 1-(4-Nitrobenzyl-3-{(bis(2-chloroethyl)amino)carbamoyl}pyridinium bromide level at 40 mg/kg, iv measured at 100 min by UV-spectrophotometric analysis; type: ADME, organism-based; set-up: dose 40 mg/kg, route intravenous; conditions: in vivo
[10] = system: Blood; assay: Prodrug conversion in Sprague-Dawley Rattus norvegicus (rat) blood assessed as 1-(4-Nitrobenzyl-3-{(bis(2-chloroethyl)amino)carbamoyl}pyridinium bromide level at 40 mg/kg, iv measured at 15 min by UV-spectrophotometric analysis; type: ADME, organism-based; set-up: dose 40 mg/kg, route intravenous; conditions: in vivo, 0.25 h
[11] = system: Blood; assay: Half life in 100% Homo sapiens (human) whole blood assessed as conversion to 1-(4-Nitrobenzyl-3-{(bis(2-chloroethyl)amino)carbamoyl}pyridinium bromide at 10 x 10^-4 M by UV-spectrophotometric analysis; type: ADME, tissue-based; conditions: 1000 µM
[12] = system: Brain; assay: Prodrug conversion in Sprague-Dawley Rattus norvegicus (rat) brain homogenate assessed as 1-(4-Nitrobenzyl-3-{(bis(2-chloroethyl)amino)carbamoyl}pyridinium bromide level at 40 mg/kg, iv measured at 60 min by UV-spectrophotometric analysis; type: ADME, organism-based; set-up: dose 40 mg/kg, route intravenous; conditions: in vivo, 1 h
[13] = system: Blood; assay: Prodrug conversion in Sprague-Dawley Rattus norvegicus (rat) blood assessed as 1-(4-Nitrobenzyl-3-{(bis(2-chloroethyl)amino)carbamoyl}pyridinium bromide level at 40 mg/kg, iv measured at 30 min by UV-spectrophotometric analysis; type: ADME, organism-based; set-up: dose 40 mg/kg, route intravenous; conditions: in vivo, 0.5 h
[14] = system: Blood; assay: Prodrug conversion in Sprague-Dawley Rattus norvegicus (rat) blood assessed as 1-(4-Nitrobenzyl-3-{(bis(2-chloroethyl)amino)carbamoyl}pyridinium bromide level at 40 mg/kg, iv measured at 150 min by UV-spectrophotometric analysis; type: ADME, organism-based; set-up: dose 40 mg/kg, route intravenous; conditions: in vivo, 2.5 h
[15] = Half life in silver nitrate solution assessed as conversion to1-(4-Nitrobenzyl-3-{(bis(2-chloroethyl)amino)carbamoyl}pyridinium bromide at 5% after 2 min by UV-Visible spectrophotometric analysis; type: physicochemical
[16] = system: Brain; assay: Prodrug conversion in Sprague-Dawley Rattus norvegicus (rat) brain homogenate assessed as 1-(4-Nitrobenzyl-3-{(bis(2-chloroethyl)amino)carbamoyl}pyridinium bromide level at 40 mg/kg, iv measured at 15 min by UV-spectrophotometric analysis; type: ADME, organism-based; set-up: dose 40 mg/kg, route intravenous; conditions: in vivo, 0.25 h
[17] = system: Blood; assay: Prodrug conversion in Sprague-Dawley Rattus norvegicus (rat) blood assessed as 1-(4-Nitrobenzyl-3-{(bis(2-chloroethyl)amino)carbamoyl}pyridinium bromide level at 40 mg/kg, iv measured at 60 min by UV-spectrophotometric analysis; type: ADME, organism-based; set-up: dose 40 mg/kg, route intravenous; conditions: in vivo, 1 h
[18] = system: Blood; assay: Prodrug conversion in Sprague-Dawley Rattus norvegicus (rat) blood assessed as assessed as 1-(4-Nitrobenzyl-3-{(bis(2-chloroethyl)amino)carbamoyl}pyridinium bromide level at 40 mg/kg, iv measured at 100 min by UV-spectrophotometric analysis; type: ADME, organism-based; set-up: dose 40 mg/kg, route intravenous; conditions: in vivo
[19] = system: Blood; assay: Half life in 100% Rattus norvegicus (rat) whole blood assessed as conversion to 1-(4-Nitrobenzyl-3-{(bis(2-chloroethyl)amino)carbamoyl}pyridinium bromide at 10 x 10^-4 M by UV-spectrophotometric analysis; type: ADME, tissue-based; conditions: 1000 µM
[20] = system: Brain; assay: Half life in Rattus norvegicus (rat) brain homogenate assessed as conversion to 1-(4-Nitrobenzyl-3-{(bis(2-chloroethyl)amino)carbamoyl}pyridinium bromide at 6.25 x 10^-4 M by UV-spectrophotometric analysis; type: ADME, tissue-based; conditions: 625 µM
[21] = system: Brain; assay: Prodrug conversion in Sprague-Dawley Rattus norvegicus (rat) brain homogenate assessed as 1-(4-Nitrobenzyl-3-{(bis(2-chloroethyl)amino)carbamoyl}pyridinium bromide level at 40 mg/kg, iv measured at 150 min by UV-spectrophotometric analysis; type: ADME, organism-based; set-up: dose 40 mg/kg, route intravenous; conditions: in vivo, 2.5 h

O=C(C1=CN(Cc2ccccc2)C=CC1)N(CCCl)CCCl
t1/2 [1]: 36 min
t1/2 [2]: 25 min
t1/2 [3]: 5 min
degraded at 1440 h [4]: 18%
t1/2 [5]: 29 min
degraded at 1440 h [6]: 9%

O=C(c1ccc[n+](Cc2ccccc2)c1)N(CCCl)CCCl.[Br-]
half-life [7]: 14.7 min

O=C(C1=CN(Cc2ccc([N+](=O)[O-])cc2)C=CC1)N(CCCl)CCCl
Drug metabolism [8]: 9 µg/g
Drug metabolism [9]: 27 µg/g
degraded at 1440 h [4]: 8%
Drug metabolism [10]: 60 µg/mL
t1/2 [11]: 39 min
Drug metabolism [12]: 17 µg/g
Drug metabolism [13]: 48 µg/mL
Drug metabolism [14]: 0 µg/mL
t1/2 [15]: 7 min
Drug metabolism [16]: 4 µg/g
Drug metabolism [17]: 35 µg/mL
Drug metabolism [18]: 12 µg/mL
t1/2 [19]: 34 min
degraded at 1440 h [6]: 3%
t1/2 [20]: 31 min
Drug metabolism [21]: 42 µg/g

O=C(c1ccc[n+](Cc2ccc([N+](=O)[O-])cc2)c1)N(CCCl)CCCl.[Br-]
half-life [7]: 8.4 min
